Data published in patent US20040077674A1, “Mappicine analogs, intermediates in the synthesis of mappicine analogs and methods of synthesis of mappicine analogs” (priority 2002, published 2004).

Assays:
[1] = biological target: T1, RNase H activity of HIV reverse transcriptase (Human immunodeficiency virus type 1 group M subtype B, UniProt P03366); test: Fluorescence (FRET)-based RNase H assay of HIV reverse transcriptase; type: biochemical, HIV-1; conditions: 10 μM inhibitor concentration, activity in presence / in absence of analog x 100
T1 construct: 2.5 nM of the p51/p66 RT heterodimer in the assay; made in house

[2] = biological target: T2, RNA-dependent DNA polymerase activity of HIV reverse transcriptase (Human immunodeficiency virus type 1 group M subtype B, UniProt P03366); test: RNA-dependent DNA polymerase activity assay of HIV reverse transcriptase; type: biochemical, HIV-1; conditions: 10 μM inhibitor concentration, activity in presence / in absence of analog x 100
T2 construct: made in house
Description: In separate representative assays, mappicine analogs were tested for their ability to inhibit the RNA-dependent DNA polymerase activity of HIV reverse transcriptase and for their ability to inhibit the RNase H activity of HIV reverse transcriptase. The assay for RNA-dependent DNA polymerase activity is discussed in Borkow, G. et al., “Inhibition of the Ribonuclease H and DNA Polymerase Activities of HIV-1 Reverse Transcriptase by N-(4-tert-Butylbenzoyl)-2-hydroxy-1-naphthaldehyde Hydrazone,” Biochemistry 1997, 36, 3179-3185, a copy of which is attached hereto and the disclosure of which is incorporated herein by reference. Assays were carried out in the absence and in the presence of mappicine analogs (10 μM final concentration). The results are reported as % residual activity, which is the RNA-dependent DNA polymerase activity of the enzyme in the presence of the mappicine analog divided by the RNA-dependent activity of the enzyme in the absence of the mappicine analog, multiplied by 100.

| SMILES | Residual activity (%) RNase H ([1]; 10 µM) [%] | Residual activity (%) Polymerase ([2]; 10 µM) [%] | Residual activity (%) RNase H [1] [%] | Residual activity (%) Polymerase [2] [%] |
| --- | --- | --- | --- | --- |
| CCC(O)c1cc2n(c(=O)c1C)Cc1c-2nc2ccccc2c1[Si](C)(C)C (stereo not shown) [5 (5Aα)] | 93 | 32 |  |  |
| CCC(=O)c1cc2n(c(=O)c1C)Cc1c-2nc2ccccc2c1[Si](C)(C)C [5 (5Aακ)] |  |  | 103 | 91 |
| Cc1c(C(O)C(C)(C)C)cc2n(c1=O)Cc1c-2nc2ccccc2c1[Si](C)(C)C (stereo not shown) [5 (5Aβ)] |  |  | 77 | 103 |
| Cc1c(C(=O)C(C)(C)C)cc2n(c1=O)Cc1c-2nc2ccccc2c1[Si](C)(C)C [5 (5Aβκ)] |  |  | 97 | 47 |
| Cc1c(C(O)CCC2CCCCC2)cc2n(c1=O)Cc1c-2nc2ccccc2c1[Si](C)(C)C (stereo not shown) [5 (5Aδ)] |  |  | 78 | 83 |
| Cc1c(C(=O)CCC2CCCCC2)cc2n(c1=O)Cc1c-2nc2ccccc2c1[Si](C)(C)C [5 (5Aδκ)] |  |  | 75 | 90 |
| Cc1c(C(O)Cc2ccccc2)cc2n(c1=O)Cc1c-2nc2ccccc2c1[Si](C)(C)C (stereo not shown) [5 (5Aε)] |  |  | 93 | 54 |
| CCC(O)c1cc2n(c(=O)c1C)Cc1c-2nc2ccc(F)cc2c1[Si](C)(C)C (stereo not shown) [5 (5Bα)] |  |  | 105 | 82 |
| CCC(=O)c1cc2n(c(=O)c1C)Cc1c-2nc2ccc(F)cc2c1[Si](C)(C)C [5 (5Bακ)] |  |  | 89 | 74 |
| Cc1c(C(O)C(C)(C)C)cc2n(c1=O)Cc1c-2nc2ccc(F)cc2c1[Si](C)(C)C (stereo not shown) [5 (5Bβ)] |  |  | 102 | 74 |
| Cc1c(C(=O)C(C)(C)C)cc2n(c1=O)Cc1c-2nc2ccc(F)cc2c1[Si](C)(C)C [5 (5Bβκ)] |  |  | 100 | 63 |
| Cc1c(C(O)CCC2CCCCC2)cc2n(c1=O)Cc1c-2nc2ccc(F)cc2c1[Si](C)(C)C (stereo not shown) [5 (5Bδ)] |  |  | 103 | 78 |
| Cc1c(C(=O)CCC2CCCCC2)cc2n(c1=O)Cc1c-2nc2ccc(F)cc2c1[Si](C)(C)C [5 (5Bδκ)] |  |  | 78 | 46 |
| Cc1c(C(O)Cc2ccccc2)cc2n(c1=O)Cc1c-2nc2ccc(F)cc2c1[Si](C)(C)C (stereo not shown) [5 (5Bε)] |  |  | 88 | 49 |
| CCC(O)c1cc2n(c(=O)c1C)Cc1c-2nc2ccc(C)cc2c1[Si](C)(C)C (stereo not shown) [5 (5Cα)] |  |  | 62 | 68 |
| CCC(=O)c1cc2n(c(=O)c1C)Cc1c-2nc2ccc(C)cc2c1[Si](C)(C)C [5 (5Cακ)] |  |  | 109 | 93 |
| Cc1ccc2nc3c(c([Si](C)(C)C)c2c1)Cn1c-3cc(C(O)C(C)(C)C)c(C)c1=O (stereo not shown) [5 (5Cβ)] |  |  | 80 | 72 |
| Cc1ccc2nc3c(c([Si](C)(C)C)c2c1)Cn1c-3cc(C(=O)C(C)(C)C)c(C)c1=O [5 (5Cβκ)] |  |  | 92 | 76 |
| Cc1ccc2nc3c(c([Si](C)(C)C)c2c1)Cn1c-3cc(C(O)CCC2CCCCC2)c(C)c1=O (stereo not shown) [5 (5Cδ)] |  |  | 103 | 41 |
| Cc1ccc2nc3c(c([Si](C)(C)C)c2c1)Cn1c-3cc(C(=O)CCC2CCCCC2)c(C)c1=O [5 (5Cδκ)] |  |  | 99 | 59 |
| Cc1ccc2nc3c(c([Si](C)(C)C)c2c1)Cn1c-3cc(C(O)Cc2ccccc2)c(C)c1=O (stereo not shown) [5 (5Cε)] |  |  | 93 | 87 |
| CCC(O)c1cc2n(c(=O)c1C)Cc1c-2nc2ccc(OC)cc2c1[Si](C)(C)C (stereo not shown) [5 (5Dα)] |  |  | 78 | 88 |
| CCC(=O)c1cc2n(c(=O)c1C)Cc1c-2nc2ccc(OC)cc2c1[Si](C)(C)C [5 (5Dακ)] |  |  | 86 | 50 |
